Assay results reported in patent US10434111B2, “Compositions and methods for modification of biomolecules” (THE REGENTS OF THE UNIVERSITY OF CALIFORNIA, priority 2004, dated 2019).
Values belong to the compound of their own block, whether it stands above or below them.

How the values were obtained:
azide-labeled GlyCAM-Ig = biological target: T1, azide-labeled GlyCAM-Ig (Mus musculus, UniProt Q02596); assay: Western blot analysis of azide-labeled GlyCAM-Ig; assay type: biochemical; settings: for labeling (biotinylation) of GlyCAM-Ig modified with SiaNAz: 250 μM probe alone, overnight at rt, no copper catalysis
T1 construct: made in house; host or cells: CHO cells grown with Ac4ManNAz
T1 sequence (Q02596 20-151): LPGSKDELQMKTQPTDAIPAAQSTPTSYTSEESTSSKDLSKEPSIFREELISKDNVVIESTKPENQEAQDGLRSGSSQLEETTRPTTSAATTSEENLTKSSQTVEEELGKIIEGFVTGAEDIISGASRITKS
Protocol: For Western blot analysis of azide-labeled and unlabeled GlyCAM-Ig, samples were incubated with 5 (250 μM final concentration in PBS, pH 7.4 containing 0.7% DMF), 6 (250 μM final concentration in PBS, pH 7.4 containing either 0.7% DMF) or left untreated for 12 h. To verify that 6 could react with azide-labeled GlyCAM-Ig via copper-mediated [3+2] cycloaddition, a modified version of the method reported by Speers and Cravatt was employed. Speers and Cravatt (2004) Chem. Biol. 11:535-46. Briefly, GlyCAM-Ig samples (in PBS, pH 7.4 containing 0.7% DMF) were incubated with 250 μM 6, 2.5 mM TCEP, 250 μM tris-triazolyl ligand (from a 1.7 mM stock in 1:4 DMSO:tert-butanol), and 2.5 mM CuSO4. Samples were vortexed and allowed to react at rt for 12 h. Prior to electrophoresis, samples were incubated with an equal volume of 100 mM 2-azidoethanol in 2×SDS-PAGE loading buffer for 8 h at rt (to quench unreacted 5 or 6). The quenched samples were boiled for 3 min and loaded onto precast polyacrylamide gels. After electrophoresis, the samples were electroblotted to nitrocellulose membrane. The membrane was blocked using 5% BSA in PBS (pH 7.4, containing 0.05% Tween 20 (blocking buffer A) for 1 h at rt, then incubated with a solution of blocking buffer A containing HRP-α-biotin (1:250,000 dilution, 1 h at rt). The membrane was washed, and detection of membrane-bound anti-biotin-HRP was accomplished by chemiluminescence. Following detection, the membrane was rinsed with PBS (pH 7.4) containing 0.05% Tween (PBS-T) and placed in stripping buffer (15 min at RT) to remove bound anti-biotin Ig. The membrane was thoroughly rinsed with PBS-T and probed for residual anti-biotin signal by chemiluminescence.
The membrane was washed and re-blocked with 5% low-fat dry powdered milk (blocking buffer B) for 1 h at rt. The membrane was then incubated with HRP-α-Ig (1:5000 in blocking buffer B) for 1 h at rt. The membrane was washed again with PBS-T, and detection of membrane bound anti-human Ig was accomplished as for peroxidase-conjugated anti-biotin. Control samples were treated in an identical manner, except that specific reagents were replaced by buffer where appropriate.
FIG. 2. Labeling of azide-modified GlyCAM-Ig with alkyne probes. Purified GlyCAM-Ig was treated with buffer (−), 250 μM 5, or 250 μM 6 alone or in the presence (cat) of CuSO4, TCEP, and a triazolyl ligand, overnight at rt. Reaction mixtures were quenched with 2-azidoethanol and analyzed by Western blot probing with HRP-α-biotin (upper panel). The blot was then stripped and reprobed with HRP-α-Ig (lower panel).

Jurkat cells [1] = assay: Cell surface azide labeling and detection, Jurkat cells, FITC-avidin flow cytometry; assay type: cell-based, human
Protocol: Jurkat cells were seeded at a density of 1.5-2.0×10^5 cells/mL and incubated for 3 d in untreated media or media containing various concentrations of Ac4ManNAz. […] Cells were then incubated with 5 or a biotinylated phosphine probe (Vocadlo et al. (2003) Proc. Natl. Acad. Sci. U.S.A. 100:9116-21) in labeling buffer containing 2.8% DMF or labeling buffer plus 2.8% DMF alone. […] Following a 10-min incubation on ice (in the dark), cells were washed with 200 μL of cold labeling buffer and the FITC-avidin staining procedure was repeated.
FIGS. 3A and 3B. Cell surface labeling with compound 5. Jurkat cells were incubated in the presence (+Az) or absence (−Az) of 25 μM Ac4ManNAz for 3 d. FIG. 3A. The cells were reacted with various concentrations of 5 for 1 h at rt and treated with FITC-avidin; mean fluorescence intensity (MFI) was determined by flow cytometry. FIG. 3B. The cells were incubated with 250 μM 5 for various durations at rt and analyzed as in A. C. The cells were incubated with 100 μM probe for 1 h at rt and analyzed as in A. Error bars represent the standard deviation from three replicates. AU=arbitrary fluorescence units.

[2] = Kinetic evaluation of [3+2] cycloaddition of cyclooctyne probes with 2-azidoethanol (1H NMR); assay type: physicochemical; settings: HOCH2CH2N3, CD3CN/PBS (55:45), 22° C.
Protocol: (§1) Stock solutions of cyclooctynes 3a and 3b (50 mM), benzyl azide (500 mM) and 2-azidoethanol (500 mM) were made in either CD3CN or a 55:45 mixture of CD3CN and deuterated Dulbecco's phosphate-buffered saline (pH 7.4, made with D2O). Gentle heating and/or sonication in a H2O bath was required to fully dissolve 3a and 3b. An NMR tube was charged with 450 μL of either 3a or 3b, and 50 μL of either benzyl azide or 2-azidoethanol, and the reaction was monitored over time using ^1H NMR spectroscopy.
(§2) In the case of the reactions of 3a and 3b with benzyl azide, the kinetic data were derived by monitoring the change in integration of resonances corresponding to the benzylic protons in benzyl azide (δ˜4.2 ppm) compared to the corresponding resonances of the triazole products (δ ˜5.0 to 5.5 ppm). […]
(§3) Second-order rate constants for the reaction were determined by plotting 1/[benzyl azide] versus time in the case of the reactions of 3a and 3b with benzyl azide and by plotting 1/[3a] versus time or 1/[3b] versus time in the case of the reactions of 3a and 3b with 2-azidoethanol, and subsequent analysis by linear regression. Second-order rate constants correspond to one half of the determined slope (Table 1). […]

[3] = Kinetic evaluation of [3+2] cycloaddition of cyclooctyne probes with benzyl azide (1H NMR); assay type: physicochemical; settings: PhCH2N3, CD3CN, 22° C.
Protocol: as §1, §2, §3

[4] = Stability of cyclooctyne 3 to acid, base and biological nucleophiles; assay type: physicochemical
Protocol: [drawing 31] by Reese and Shaw. Reese and Shaw (1970) Chem. Comm. 1172-1173. Briefly, compound 1 (Skattebol and Solomon, supra) was treated with silver perchlorate to effect electrocyclic ring opening to the trans-allylic cation, which was captured with methyl hydroxymethylbenzoate to afford bromo-trans-cyclooctene 2. Base-mediated elimination of the vinyl bromide followed by saponification yielded versatile intermediate 3, to which any biological probe can be attached. Finally, compound 3 was coupled to biotin analog 4 (Wilbur et al. (1996) Bioconj. Chem. 7:689-702) bearing a PEG linker, providing target 5. Cyclooctyne 3 was stable to mild acid (0.5 N HCl for 30 min), base (0.8 M NaOMe for 30 min), and prolonged exposure to biological nucleophiles such as thiols (120 mM 2-mercaptoethanol for 12 h).

Jurkat cells [5] = test system: Jurkat cells

labeling (biotinylation) of GlyCAM-Ig modified with SiaNAz (azide-labeled GlyCAM-Ig; HRP-α-biotin blot): no glycoprotein labeling
labeling of the azide-modified glycoprotein with copper catalysis (azide-labeled GlyCAM-Ig; 250 μM probe plus CuSO4, TCEP and a triazolyl ligand): facile labeling
anti-IgG immunoreactivity of labeled azide-modified GlyCAM-Ig (azide-labeled GlyCAM-Ig; in the presence of copper, blot reprobed with HRP-α-IgG): consistently diminished
SMILES: C#CCCC(=O)NCCCOCCOCCOCCCNC(=O)CCCC[C@@H]1SC[C@@H]2NC(=O)N[C@@H]21 [Compound 6]

labeling (biotinylation) of GlyCAM-Ig modified with SiaNAz (azide-labeled GlyCAM-Ig; HRP-α-biotin blot): Robust biotinylation
labeling of native GlyCAM-Ig lacking azides (azide-labeled GlyCAM-Ig; 250 μM probe overnight, HRP-α-biotin blot): no background labeling
SMILES: O=C(CCCC[C@@H]1SC[C@@H]2NC(=O)N[C@@H]21)NCCCOCCOCCOCCCNC(=O)c1ccc(COC2C#CCCCCC2)cc1 (stereo partly drawn) [Compound 5]
dependence of cell surface reaction on incubation time (Jurkat cells [1]; Jurkat +Az, 250 μM probe for various durations at rt): dependent on duration of incubation
effects on cell viability (Jurkat cells [1]; Jurkat cells treated with probe): No negative effects
labeling of cells lacking azides (Jurkat cells [1]; Jurkat grown without Ac4ManNAz): No detectable labeling
fluorescence of cells displaying azides upon treatment with the cyclooctyne probe (Jurkat cells [1]; Jurkat, 25 μM Ac4ManNAz 3 d, various concentrations of probe, rt, FITC-avidin): dose-dependent increase in fluorescence

SMILES: O=C(O)c1ccc(CC2C#CCCCCC2)cc1 (stereo not drawn) [Compound 3a, 4-Cyclooct-2-ynylmethylbenzoic acid]
k, second-order rate constant for the [3 + 2] cycloaddition [2]: 0.0011 M⁻¹ s⁻¹
k, second-order rate constant for the [3 + 2] cycloaddition [3]: 0.0012 M⁻¹ s⁻¹

stability to biological nucleophiles such as thiols ([4]; 120 mM 2-mercaptoethanol for 12 h): stable
stability to mild acid ([4]; 0.5 N HCl for 30 min): stable
stability to base ([4]; 0.8 M NaOMe for 30 min): stable
SMILES: O=C(O)c1ccc(COC2C#CCCCCC2)cc1 (stereo not drawn) [Compound 3]

SMILES: O=C(O)c1ccc(CC2(F)C#CCCCCC2)cc1 (stereo not drawn) [Compound 3b, 4-(1-Fluoro-cyclooct-2-ynylmethyl)benzoic acid]
k, second-order rate constant for the [3 + 2] cycloaddition [2]: 0.004 M⁻¹ s⁻¹
k, second-order rate constant for the [3 + 2] cycloaddition [3]: 0.0042 M⁻¹ s⁻¹

SMILES: O=C(CCCC[C@@H]1SC[C@@H]2NC(=O)N[C@@H]21)NCCCOCCOCCOCCCNC(=O)COC1CCC#CC(F)(F)CC1 (stereo partly drawn) [DIFO-biotin]
labeling of azide-containing membrane-associated glycans in live cells (Jurkat cells [5]; 0 or 25 μM Ac4ManNAz 3 days, probe 1 h, FITC-avidin): selectively label
sensitivity of azide detection compared to a nonfluorinated cyclooctyne or a phosphine capable of Staudinger ligation (Jurkat cells [5]; 100 μM probes, 1 h): much higher
